In patent US6336949B1, “Slow release urea fertilizer composition and a process for the preparation of the said composition” (Council of Scientific & Industrial Research, priority 1999, dated 2002):

Key:
Nitrosomonus = Nitrosomonus population in soil; assay type: cell-based; settings: no coating material; urea 100 mg N kg^−1 soil
Procedure: (§1) Representative soil samples were analyzed for different forms of N i.e., urea N, NH4 and NO3-N at regular intervals for two weeks to assess the nitrification inhibitory properties of the materials in question following the standard procedures (Douglas and Bremner, 1970, Soil Sci. Soc. Am. Proc. 34:859-862). Another set of experiment was conducted to assay the total bacterial population, total actinomycetes population and nitrifying bacteria viz., Nitrosomons and Nitrobacber (Alexander and Clark, 1965, In. Method of Soil Analysis Part II (CA Black Eds) Am. Soc .Agron. Inc. Wisconsin, U.S.A.; KenKnight and Torariko. 1973, Agrokhimiya 7:3)

Nitrobacter = Nitrobacter population in soil; assay type: cell-based; settings: no coating material; urea 100 mg N kg^−1 soil
Procedure: as §1

[1] = system: menthol mint (Mentha arvensis); experiment: Greenhouse pot culture experiment: herb yield, N accumulation, apparent N recovery; assay type: in vivo; settings: urea N 100 mg kg^−1, coating materials added at 1.00% w/w (Nil for urea alone)
Procedure: To confirm the results of the incubation a pot culture experiment was conducted subsequently taking menthol mint (Mentha arvensis) as the test crops. Eight kg soil (<2 mm) were put in plastic container. The same fertilizers coating treatments as were in incubation experiment were imposed in this experiment, except that instead of two levels of coating materials, these were applied at 1.00% on v/w basis. The experiment was laid in a completely randomized design with four replications. The soils were analyzed for mineral forms of N at regular intervals. In addition, the plant samples were analyzed for N accumulation and apparent N recovery. [formula]

Actinomycetes = experiment: Total actinomycetes population in soil; assay type: cell-based; settings: no coating material; urea 100 mg N kg^−1 soil
Procedure: as §1

Total bacteria = experiment: Total bacterial population in soil; assay type: cell-based; settings: no coating material; urea 100 mg N kg^−1 soil
Procedure: as §1

urease = settings: no coating material; urea 100 mg N kg^−1 soil; 24 hours of incubation

SMILES: NC(N)=O [Urea alone, Urea]
- Nitrosomonus (Nitrosomonus): 3.30 × 103, g^−1 soil
- Nitrobacter (Nitrobacter): 14.00 × 103, g^−1 soil
- Apparent recovery (apparent N recovery) [1]: 29.1%
- Herb yield [1]: 42.8 g pot^−1
- N accumulation [1]: 450 mg pot^−1
- Apparent recovery (apparent N recovery) ([1]; listed as urea alone): 29%
- Actinomycetes (Actinomycetes): 5.66 × 104, g^−1 soil
- Total bacteria (Total bacteria): 4.00 × 105, g^−1 soil
- Urease activity (urease): 66.5 μg NH4—N liberated/g soil/hour
